Measurements: PMC8071972, “Urinary L-erythro-β-hydroxyasparagine—a novel serine racemase inhibitor and substrate of the Zn^2+-dependent D-serine dehydratase” (Bioscience Reports, 2021)
Values belong to the molecule of their own block, whether it stands above or below them.

Experiments:
Assay type in all cases: biochemical
[1] = biological target: T1, serine racemase (mouse SR) (Mus musculus, UniProt Q9QZX7); test: enzymatic resolution of racemic β-EHAsp by recombinant enzyme
T1 construct: gene Srr; N-terminal His-tag, recombinant from E. coli
T1 sequence (Q9QZX7 1-339): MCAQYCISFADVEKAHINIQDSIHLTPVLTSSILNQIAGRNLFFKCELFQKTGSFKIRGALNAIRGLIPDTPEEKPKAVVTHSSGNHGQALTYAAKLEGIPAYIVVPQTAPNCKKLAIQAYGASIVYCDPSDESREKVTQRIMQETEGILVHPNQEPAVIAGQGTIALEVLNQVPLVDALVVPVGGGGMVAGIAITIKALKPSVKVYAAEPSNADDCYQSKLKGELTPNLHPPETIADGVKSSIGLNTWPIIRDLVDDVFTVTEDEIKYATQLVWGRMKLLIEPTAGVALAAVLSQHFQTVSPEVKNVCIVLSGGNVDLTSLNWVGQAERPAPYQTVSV

[2] = biological target: T2, asparagine synthase (AsnA) (Escherichia coli, UniProt P00963); test: preparative enzymatic amidation, HPLC
T2 construct: N-terminal His-tagged protein
T2 sequence (P00963 1-330): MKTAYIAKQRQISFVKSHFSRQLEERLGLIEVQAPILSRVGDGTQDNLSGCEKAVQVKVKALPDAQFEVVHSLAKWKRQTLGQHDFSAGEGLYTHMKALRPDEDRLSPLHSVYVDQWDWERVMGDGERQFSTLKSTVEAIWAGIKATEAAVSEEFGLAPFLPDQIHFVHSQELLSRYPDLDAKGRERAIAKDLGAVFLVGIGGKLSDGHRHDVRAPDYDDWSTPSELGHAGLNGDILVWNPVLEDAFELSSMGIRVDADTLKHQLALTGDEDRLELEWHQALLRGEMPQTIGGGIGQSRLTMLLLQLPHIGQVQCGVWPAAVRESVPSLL

[3] = biological target: T3, asparaginase (AnsA; printed AsnA in the results, asparaginase 1) (Escherichia coli, UniProt P0A962); test: HPLC of urinary amino acids treated with purified enzyme
T3 construct: N-terminal His-tagged protein
T3 sequence (P0A962 1-338): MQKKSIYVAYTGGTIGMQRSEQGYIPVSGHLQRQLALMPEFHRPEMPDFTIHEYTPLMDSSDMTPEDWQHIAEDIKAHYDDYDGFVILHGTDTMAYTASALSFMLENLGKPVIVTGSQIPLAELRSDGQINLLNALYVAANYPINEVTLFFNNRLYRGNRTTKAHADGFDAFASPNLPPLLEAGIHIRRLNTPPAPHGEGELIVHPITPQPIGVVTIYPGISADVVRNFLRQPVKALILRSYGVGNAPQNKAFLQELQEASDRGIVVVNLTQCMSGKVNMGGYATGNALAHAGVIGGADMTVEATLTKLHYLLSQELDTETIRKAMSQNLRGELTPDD

[4] = biological target: T4, D-serine dehydratase (Dsd1p) (Saccharomyces cerevisiae, UniProt P53095); test: HPLC and LC-ESI-MS of urinary amino acid degradation by purified enzyme
T4 construct: gene DSD1; N-terminal His-tagged protein
T4 sequence (P53095 1-428): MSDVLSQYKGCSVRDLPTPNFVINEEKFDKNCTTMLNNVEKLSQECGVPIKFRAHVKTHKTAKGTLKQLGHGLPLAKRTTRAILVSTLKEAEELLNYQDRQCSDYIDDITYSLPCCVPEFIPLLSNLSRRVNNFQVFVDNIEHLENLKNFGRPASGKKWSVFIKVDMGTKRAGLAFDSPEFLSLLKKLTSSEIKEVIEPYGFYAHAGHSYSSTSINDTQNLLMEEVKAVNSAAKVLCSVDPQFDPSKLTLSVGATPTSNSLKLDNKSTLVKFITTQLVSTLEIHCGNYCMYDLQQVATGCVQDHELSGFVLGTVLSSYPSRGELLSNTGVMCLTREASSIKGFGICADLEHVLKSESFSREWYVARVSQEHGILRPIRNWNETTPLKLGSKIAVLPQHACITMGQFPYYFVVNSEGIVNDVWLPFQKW

[5] = biological target: T1, serine racemase (mouse SR); test: LDH-coupled L-Ser dehydration assay, steady-state kinetics

SMILES: N[C@@H](C(=O)O)[C@H](O)C(=O)O (racemic) [D-β-EHAsp]
enzymatic resolution of racemic β-EHAsp by recombinant enzyme [1]: could efficiently eliminate D-β-EHAsp from the racemic mixture

SMILES: N[C@H](C(=O)O)[C@@H](O)C(=O)O [L-β-EHAsp]
preparative enzymatic amidation, HPLC [2]: L-β-EHAsp was further converted to L-β-EHAsn by the action of E. coli AsnA

Ki [5]: 40 ± 6 µM
SMILES: NC(=O)[C@H](O)[C@H](N)C(=O)O (stereo in doubt) [L-β-EHAsn, L-erythro-β-hydroxyasparagine]
HPLC of urinary amino acids treated with purified enzyme [3]: Urinary β-OH-Asn could be converted into the corresponding isomer of β-hydroxy aspartate (β-OH-Asp) using the E. coli asparaginase
HPLC and LC-ESI-MS of urinary amino acid degradation by purified enzyme [4]: the urinary Dsd1p substrate was identified as the (2S, 3S)-isomer of β-OH-Asn (L-β-EHAsn)
